Measured values taken from ChEMBL document CHEMBL2440076, “New triarylpyrazoles as broad-spectrum anticancer agents: design, synthesis, and biological evaluation” (Eur J Med Chem, 2013).

What was measured:
Type in all cases: functional
COLO 205 = assay: Growth inhibition of human COLO205 cells assessed as cell growth at 5X10'-6 M after 48 hrs by sulforhodamine B assay; details: COLO 205, 48 h, read-out: Activity
SK-MEL-2 [1] = assay: Growth inhibition of human SK-MEL-2 cells assessed as cell growth at 5X10'-7 M after 48 hrs by sulforhodamine B assay; details: SK-MEL-2, 48 h, read-out: Activity
TK-10 [2] = assay: Growth inhibition of human TK10 cells assessed as cell growth at 5X10'-5 M after 48 hrs by sulforhodamine B assay; details: TK-10, 48 h, read-out: Activity
UACC-257 = assay: Growth inhibition of human UACC257 cells assessed as cell growth at 5X10'-6 M after 48 hrs by sulforhodamine B assay; details: UACC-257, 48 h, read-out: Activity
IGROV-1 = assay: Growth inhibition of human IGROV1 cells assessed as cell growth at 5X10'-6 M after 48 hrs by sulforhodamine B assay; details: IGROV-1, 48 h, read-out: Activity
SF-268 [3] = assay: Growth inhibition of human SF268 cells assessed as cell growth at 5X10'-9 M after 48 hrs by sulforhodamine B assay; details: SF-268, 48 h, read-out: Activity
HL-60(TB) [4] = assay: Growth inhibition of human HL-60(TB) cells assessed as cell growth at 5X10'-8 M after 48 hrs by sulforhodamine B assay; details: HL-60, 48 h, read-out: Activity
HT-29 [5] = assay: Growth inhibition of human HT-29 cells assessed as cell growth at 5X10'-8 M after 48 hrs by sulforhodamine B assay; details: HT-29, 48 h, read-out: Activity
HT-29 [6] = assay: Growth inhibition of human HT-29 cells assessed as cell growth at 5X10'-5 M after 48 hrs by sulforhodamine B assay; details: HT-29, 48 h, read-out: Activity
SF-539 = assay: Growth inhibition of human SF539 cells assessed as cell growth at 5X10'-9 M after 48 hrs by sulforhodamine B assay; details: SF-539, 48 h, read-out: Activity
CAKI-1 = assay: Growth inhibition of human CAKI-1 cells assessed as cell growth at 5X10'-7 M after 48 hrs by sulforhodamine B assay; details: CAKI-1, 48 h, read-out: Activity
HCT-15 = assay: Growth inhibition of human HCT15 cells assessed as cell growth at 5X10'-8 M after 48 hrs by sulforhodamine B assay; details: HCT-15, 48 h, read-out: Activity
OVCAR-5 = assay: Growth inhibition of human OVCAR5 cells assessed as cell growth at 5X10'-7 M after 48 hrs by sulforhodamine B assay; details: OVCAR-5, 48 h, read-out: Activity
SNB-75 [7] = assay: Growth inhibition of human SNB75 cells assessed as cell growth at 5X10'-8 M after 48 hrs by sulforhodamine B assay; details: SNB-75, 48 h, read-out: Activity
SN12C = assay: Growth inhibition of human SN12C cells assessed as cell growth at 5X10'-8 M after 48 hrs by sulforhodamine B assay; details: read-out: Activity
NCI-H522 = assay: Growth inhibition of human NCI-H522 cells assessed as cell growth at 5X10'-8 M after 48 hrs by sulforhodamine B assay; details: NCI-H522, 48 h, read-out: Activity
RXF 393 = assay: Growth inhibition of human RXF393 cells assessed as cell growth at 5X10'-6 M after 48 hrs by sulforhodamine B assay; details: RXF 393, 48 h, read-out: Activity
HL-60(TB) [8] = assay: Growth inhibition of human HL-60(TB) cells assessed as cell growth at 5X10'-7 M after 48 hrs by sulforhodamine B assay; details: HL-60, 48 h, read-out: Activity
[9] = Growth inhibition of human NCI-ADR-RES cells assessed as cell growth at 5X10'-8 M after 48 hrs by sulforhodamine B assay; details: read-out: Activity
DU-145 = assay: Growth inhibition of human DU145 cells assessed as cell growth at 5X10'-7 M after 48 hrs by sulforhodamine B assay; details: DU-145, 48 h, read-out: Activity
OVCAR-8 = assay: Growth inhibition of human OVCAR8 cells assessed as cell growth at 5X10'-6 M after 48 hrs by sulforhodamine B assay; details: OVCAR-8, 48 h, read-out: Activity
SK-MEL-2 [10] = assay: Growth inhibition of human SK-MEL-2 cells assessed as cell growth at 5X10'-5 M after 48 hrs by sulforhodamine B assay; details: SK-MEL-2, 48 h, read-out: Activity
A498 = assay: Growth inhibition of human A498 cells assessed as cell growth at 5X10'-6 M after 48 hrs by sulforhodamine B assay; details: A498, 48 h, read-out: Activity
SF-268 [11] = assay: Growth inhibition of human SF268 cells assessed as cell growth at 5X10'-6 M after 48 hrs by sulforhodamine B assay; details: SF-268, 48 h, read-out: Activity
SR = assay: Growth inhibition of human SR cells assessed as cell growth at 5X10'-9 M after 48 hrs by sulforhodamine B assay; details: read-out: Activity
SK-OV-3 = assay: Growth inhibition of human SKOV3 cells assessed as cell growth at 5X10'-6 M after 48 hrs by sulforhodamine B assay; details: SK-OV-3, 48 h, read-out: Activity
U-251 = assay: Growth inhibition of human U251 cells assessed as cell growth at 5X10'-5 M after 48 hrs by sulforhodamine B assay; details: U-251, 48 h, read-out: Activity
[12] = Growth inhibition of human HCC2998 cells assessed as cell growth at 5X10'-9 M after 48 hrs by sulforhodamine B assay; details: HCC 2998, 48 h, read-out: Activity
SNB-75 [13] = assay: Growth inhibition of human SNB75 cells assessed as cell growth at 5X10'-7 M after 48 hrs by sulforhodamine B assay; details: SNB-75, 48 h, read-out: Activity
OVCAR-4 [14] = assay: Growth inhibition of human OVCAR4 cells assessed as cell growth at 5X10'-9 M after 48 hrs by sulforhodamine B assay; details: OVCAR-4, 48 h, read-out: Activity
NCI-H226 [15] = assay: Growth inhibition of human NCI-H226 cells assessed as cell growth at 5X10'-6 M after 48 hrs by sulforhodamine B assay; details: NCI-H226, 48 h, read-out: Activity
SK-MEL-28 = assay: Growth inhibition of human SK-MEL-28 cells assessed as cell growth at 5X10'-7 M after 48 hrs by sulforhodamine B assay; details: SK-MEL-28, 48 h, read-out: Activity
MOLT-4 = assay: Growth inhibition of human MOLT4 cells assessed as cell growth at 5X10'-6 M after 48 hrs by sulforhodamine B assay; details: MOLT-4, 48 h, read-out: Activity
TK-10 [16] = assay: Growth inhibition of human TK10 cells assessed as cell growth at 5X10'-7 M after 48 hrs by sulforhodamine B assay; details: TK-10, 48 h, read-out: Activity
OVCAR-4 [17] = assay: Growth inhibition of human OVCAR4 cells assessed as cell growth at 5X10'-7 M after 48 hrs by sulforhodamine B assay; details: OVCAR-4, 48 h, read-out: Activity
[18] = Growth inhibition of human Hs 578T cells assessed as cell growth at 5X10'-9 M after 48 hrs by sulforhodamine B assay; details: read-out: Activity
NCI-H226 [19] = assay: Growth inhibition of human NCI-H226 cells assessed as cell growth at 5X10'-9 M after 48 hrs by sulforhodamine B assay; details: NCI-H226, 48 h, read-out: Activity

COc1cc(-c2nn(-c3cccc(NC(=O)Nc4cccc(C(F)(F)F)c4)c3)cc2-c2ccncc2)ccc1Cl
growth at 5 µM (COLO 205): -78% | growth at 0.5 µM (SK-MEL-2 [1]): 97% | growth at 50 µM (TK-10 [2]): -7% | growth at 5 µM (UACC-257): -42% | growth at 5 µM (IGROV-1): -22% | growth at 0.005 µM (SF-268 [3]): 97% | growth at 0.05 µM (HL-60(TB) [4]): 94% | growth at 0.05 µM (HT-29 [5]): 99% | growth at 50 µM (HT-29 [6]): -79% | growth at 0.005 µM (SF-539): 95% | growth at 0.5 µM (CAKI-1): 79% | growth at 0.05 µM (HCT-15): 94% | growth at 0.5 µM (OVCAR-5): 80% | growth at 0.05 µM (SNB-75 [7]): 95% | growth at 0.05 µM (SN12C): 97% | growth at 0.05 µM (NCI-H522): 91% | growth at 5 µM (RXF 393): -52% | growth at 0.5 µM (HL-60(TB) [8]): 85% | growth at 0.05 µM [9]: 97% | growth at 0.5 µM (DU-145): 90% | growth at 5 µM (OVCAR-8): -24% | growth at 50 µM (SK-MEL-2 [10]): -85% | growth at 5 µM (A498): -7% | growth at 5 µM (SF-268 [11]): 1% | growth at 0.005 µM (SR): 93% | growth at 5 µM (SK-OV-3): 16% | growth at 50 µM (U-251): -84% | growth at 0.005 µM [12]: 100% | growth at 0.5 µM (SNB-75 [13]): 81% | growth at 0.005 µM (OVCAR-4 [14]): 99% | growth at 5 µM (NCI-H226 [15]): 7% | growth at 0.5 µM (SK-MEL-28): 87% | growth at 5 µM (MOLT-4): -14% | growth at 0.5 µM (TK-10 [16]): 79% | growth at 0.5 µM (OVCAR-4 [17]): 73% | growth at 0.005 µM [18]: 96% | growth at 0.005 µM (NCI-H226 [19]): 100%
